This is an account of results in PMC6986272 (Frontiers in Microbiology, 2020).

The target in the first assay is T1, Brucella melitensis DAPDC (diaminopimelate decarboxylase) (Brucella melitensis, UniProt Q8YJJ9).
T1 construct: gene lysA
T1 sequence (Q8YJJ9 1-421): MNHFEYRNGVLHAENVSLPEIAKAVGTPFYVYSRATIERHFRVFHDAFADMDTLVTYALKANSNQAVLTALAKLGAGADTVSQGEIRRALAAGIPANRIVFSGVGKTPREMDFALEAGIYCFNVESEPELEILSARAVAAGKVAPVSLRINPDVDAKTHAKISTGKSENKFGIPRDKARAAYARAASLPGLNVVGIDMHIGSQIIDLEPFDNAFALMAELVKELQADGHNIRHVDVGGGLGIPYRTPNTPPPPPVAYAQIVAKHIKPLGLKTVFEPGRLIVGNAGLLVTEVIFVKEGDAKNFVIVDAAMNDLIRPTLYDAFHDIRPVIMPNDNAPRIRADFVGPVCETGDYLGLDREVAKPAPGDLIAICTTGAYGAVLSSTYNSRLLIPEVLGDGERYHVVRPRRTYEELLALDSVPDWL
Test: not given
The following applies: 200 mM Tris-HCl pH 8.0, 4 mM α-ketoglutarate, 600 μM NADH, 0.1 mM PLP, excess SDH, DAP 0-20 mM, room temperature.
Take `NC(CCCC(N)C(=O)O)C(=O)O` (stereo not drawn) [DAP]: the “DAPDC-SDH coupled assay, NADH A340 endpoint” value is “hyperbolic behavior of DAPDC activity as a function of DAP concentration”.

The next assay concerns the target T1, Brucella melitensis DAPDC (diaminopimelate decarboxylase).
Test: not given
To be noted: 40 µM.
On to `O.O.O=C([O-])CCNC(=O)c1ccc(N=Nc2ccc([O-])c(C(=O)O)c2)cc1.[Na+].[Na+]` [SID8, S3745], for which the “Inhibitory rate (%)” value is listed as 54.83%.

In the case of `CC(C)(C)C(=O)Oc1ccc(S(=O)(=O)Nc2ccccc2C(=O)NCC(=O)[O-])cc1.O.O.O.O.[Na+]` [SID9, S4666], the “Inhibitory rate (%)” value is 52.88%.

A further assay has the same target. Description: biochemical. To be noted: read-out: Inhibitory rate (%).
Regarding `CCN(CCO)CCCC(C)Nc1ccnc2cc(Cl)ccc12` (racemic) [SID6, S4430], the inhibition at 40 µM came out at 56.1%.

For `CC(NC(C)(C)C)C(=O)c1cccc(Cl)c1` (racemic) [SID13, S2452], the inhibition at 40 µM came out at 47.7%.

For `COc1cc(C2Oc3ccc(C4Oc5cc(O)cc(O)c5C(=O)C4O)cc3OC2CO)ccc1O` (stereo not drawn) [SID1, S2357], the inhibition at 40 µM turned out to be 70.3%.

For `Nc1nc(=S)c2[nH]cnc2[nH]1` [SID2, S1774], the inhibition at 40 µM turned out to be 68.7%.

As for `Cc1nc(Nc2ncc(C(=O)Nc3c(C)cccc3Cl)s2)cc(N2CCN(CCO)CC2)n1` [SID3, dasatinib monohydrate], the inhibition at 40 µM amounted to 67.1%.

With `Cc1cccn2c(=O)c(-c3nn[nH]n3)cnc12` [SID5, S4008], the inhibition at 40 µM was found to be 63.1%.

As to `C[C@H]1COc2c(N3CCN(C)CC3)c(F)cc3c(=O)c(C(=O)O)cn1c23` [SID7, levofloxacin], the inhibition at 40 µM amounted to 55.3%.

For `CC(=O)c1c(C)c2cnc(Nc3ccc(N4CCNCC4)cn3)nc2n(C2CCCC2)c1=O` [SID10, S1579], the inhibition at 40 µM was determined as 52.1%.

Take `CO[C@H]1/C=C/O[C@@]2(C)Oc3c(C)c(O)c4c(O)c(c(/C=N/N5CCN(C)CC5)c(O)c4c3C2=O)NC(=O)/C(C)=C\C=C\[C@H](C)[C@H](O)[C@@H](C)[C@@H](O)[C@@H](C)[C@H](OC(C)=O)[C@@H]1C` [SID11, rifampin]: the inhibition at 40 µM was 51.5%.

Regarding `CCC(=O)c1c(O)cc(O)cc1O` [SID12, S4249], the inhibition at 40 µM was 49.2%.

In the case of `CC(C)Nc1cc(-c2c[nH]c(C(=O)N[C@H](CO)c3cccc(Cl)c3)c2)c(Cl)cn1` [SID14, ulixertinib], the inhibition at 40 µM was 47.3%.

For the molecule `COc1ccc(-c2nc3ccc(C4=NNC(=O)CC4C)cc3[nH]2)cc1` (stereo not drawn) [SID15, pimobendan], the inhibition at 40 µM was determined as 46.8%.

On to `CC1COc2c(N3CCN(C)CC3)c(F)cc3c(=O)c(C(=O)O)cn1c23` (stereo not drawn) [SID16, S1940], for which the inhibition at 40 µM amounted to 46.7%.

With `Cc1c(Cl)cccc1Nc1ccccc1C(=O)O` [SID20, tolfenamic acid], the inhibition at 40 µM amounted to 44%.

The target in another assay is T2, Saccharomyces cerevisiae saccharopine dehydrogenase (SDH) (Saccharomyces cerevisiae, UniProt P38998).
T2 construct: gene LYS1; SDH coding gene in pET30a, Ni-NTA purified, expressed in E. coli BL21(DE3), about 41 kDa
T2 sequence (P38998 2-373): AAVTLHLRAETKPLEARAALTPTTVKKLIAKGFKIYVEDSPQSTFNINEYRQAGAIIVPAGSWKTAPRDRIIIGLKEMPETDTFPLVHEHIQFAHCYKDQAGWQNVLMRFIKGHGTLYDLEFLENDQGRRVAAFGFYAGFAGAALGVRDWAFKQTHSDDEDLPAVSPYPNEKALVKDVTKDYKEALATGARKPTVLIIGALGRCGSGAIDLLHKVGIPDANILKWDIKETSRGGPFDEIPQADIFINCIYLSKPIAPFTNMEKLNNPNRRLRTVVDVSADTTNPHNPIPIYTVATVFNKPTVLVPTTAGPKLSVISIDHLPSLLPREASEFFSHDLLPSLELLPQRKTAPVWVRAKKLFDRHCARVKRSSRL
Description: NADH oxidation, A340 endpoint. Type of assay: biochemical. The following applies: 200 mM Tris pH 8.0, 600 μM NADH, α-ketoglutarate, room temperature, 15 min.
For the molecule `NCCCC[C@H](N)C(=O)O` [L-lysine], the “NADH oxidation, A340 endpoint” value is reported as “Activity of SDH as a function of the concentration of L-lysine”.
